According to US20190292179A1 (BRISTOL-MYERS SQUIBB COMPANY, priority 2016, published 2019):
Where a name gives a salt, the structure may show the parent alone.

Experiments:
[1] = target: HIS-TGFβR2 WT (Homo sapiens, UniProt P37173); experiment: HTRF probe-displacement assay with HIS-TGFβR2 WT; type: binding; conditions: 1 nM HIS-TGFβR2 WT, labeled probe at Kd, 1 hour at room temperature
Procedure: (§1) The reaction is incubated for 1 hour at room temperature and the HTRF signal was measured on an Envision plate reader (Ex: 340 nm; Em: 520 nm/495 nm). Inhibition data were calculated by comparison to no enzyme control reactions for 100% inhibition and vehicle-only reactions for 0% inhibition. The final concentration of reagents in the assay are 1 nM HIS-TGFβR1 T204D or HIS-TGFβR2 WT, 0.2 nM anti-HIS detection antibody, labeled small molecule probe (at Kd) and 0.5% DMSO. Dose response curves were generated to determine the concentration required inhibiting 50% of kinase activity (IC50). Compounds were dissolved at 10 mM in dimethylsulfoxide (DMSO) and evaluated at eleven concentrations. IC50 values were derived by non-linear regression analysis.

[2] = target: T1, HIS-TGFβR1 T204D (Homo sapiens, UniProt P36897, T204D); experiment: HTRF probe-displacement assay with HIS-TGFβR1 T204D; type: binding; conditions: 1 nM HIS-TGFβR1 T204D, labeled probe at Kd, 1 hour at room temperature
T1 sequence (P36897 34-503 T204D): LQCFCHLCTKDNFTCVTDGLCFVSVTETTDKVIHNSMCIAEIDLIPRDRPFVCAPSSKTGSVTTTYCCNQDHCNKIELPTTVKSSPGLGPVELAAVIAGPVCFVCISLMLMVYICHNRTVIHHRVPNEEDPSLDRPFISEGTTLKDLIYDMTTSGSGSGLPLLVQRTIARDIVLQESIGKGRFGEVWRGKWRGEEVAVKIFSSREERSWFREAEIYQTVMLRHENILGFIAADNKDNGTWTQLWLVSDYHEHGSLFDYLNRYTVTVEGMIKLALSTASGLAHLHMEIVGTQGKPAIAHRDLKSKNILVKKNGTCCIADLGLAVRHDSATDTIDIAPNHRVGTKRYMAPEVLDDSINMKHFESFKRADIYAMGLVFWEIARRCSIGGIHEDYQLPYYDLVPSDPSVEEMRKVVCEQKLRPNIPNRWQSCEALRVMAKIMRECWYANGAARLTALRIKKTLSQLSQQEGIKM
Procedure: as §1

Sequence of HIS-TGFβR2 WT (P37173 23-567): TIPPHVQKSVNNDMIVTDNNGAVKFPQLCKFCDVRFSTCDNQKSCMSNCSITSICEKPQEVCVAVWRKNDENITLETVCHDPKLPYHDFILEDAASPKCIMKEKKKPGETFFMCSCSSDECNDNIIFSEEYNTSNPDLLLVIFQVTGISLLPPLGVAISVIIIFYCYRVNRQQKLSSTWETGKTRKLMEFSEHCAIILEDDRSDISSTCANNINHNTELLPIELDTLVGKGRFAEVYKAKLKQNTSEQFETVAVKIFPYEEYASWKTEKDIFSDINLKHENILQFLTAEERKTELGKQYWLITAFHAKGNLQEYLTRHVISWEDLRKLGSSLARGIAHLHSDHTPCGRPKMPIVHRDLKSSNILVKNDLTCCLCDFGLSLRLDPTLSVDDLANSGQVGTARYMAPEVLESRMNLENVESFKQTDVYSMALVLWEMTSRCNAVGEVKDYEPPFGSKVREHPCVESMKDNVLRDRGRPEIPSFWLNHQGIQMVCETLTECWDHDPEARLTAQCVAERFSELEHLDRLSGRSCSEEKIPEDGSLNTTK

| SMILES | IC50 [1] [µM] | IC50 [2] [µM] |
| --- | --- | --- |
| N#Cc1cnc2ccc(-c3c[nH]nc3-c3cccc(C(F)F)n3)cn12 [Example 4, 6-(3-(6-(difluoromethyl)pyridin-2-yl)-1H-pyrazol-4-yl)imidazo[1,2-a]pyridine-3-carbonitrile] | 1.11 | 0.001 |
| Cn1cc(-c2ccc3ncc(C(N)=O)n3c2)c(-c2cccc(C(F)(F)F)n2)n1 [Example 10, 6-(1-methyl-3-(6-(trifluoromethyl)pyridin-2-yl)-1H-pyrazol-4-yl)imidazo[1,2-a]pyridine-3-carboxamide] | 8.87 | 0.001 |
| N#CCn1cc(-c2ccc3ncc(C#N)n3c2)c(-c2ccc(F)c(Cl)c2)n1 [Example 43, 6-(3-(3-chloro-4-fluorophenyl)-1-(cyanomethyl)-1H-pyrazol-4-yl)imidazo[1,2-a]pyridine-3-carbonitrile] | 0.463 | 0.001 |
| Cc1cccc(-c2c(-c3ccc4ncc(C#N)n4c3)cnn2C2CC2)n1 [Example 22, 6-(1-cyclopropyl-5-(6-methylpyridin-2-yl)-1H-pyrazol-4-yl)imidazo[1,2-a]pyridine-3-carbonitrile] | 7.55 | 0.035 |
| Fc1ccc(-c2n[nH]cc2-c2ccc3nccn3c2)cc1Cl [Example 40, 6-(3-(3-chloro-4-fluorophenyl)-1H-pyrazol-4-yl)imidazo[1,2-a]pyridine, TFA] | 4.97 | 0.003 |
| N#Cc1cnc2ccc(-c3c[nH]nc3-c3cccc(F)n3)cn12 [Example 6, 6-(3-(6-fluoropyridin-2-yl)-1H-pyrazol-4-yl)imidazo[1,2-a]pyridine-3-carbonitrile] | 0.259 |  |
| Cc1cc(-c2n[nH]cc2-c2ccc3ncc(C(N)=O)n3c2)ccc1F [Example 50, 6-(3-(4-fluoro-3-methylphenyl)-1H-pyrazol-4-yl)imidazo[1,2-a]pyridine-3-carboxamide] | 0.368 |  |
| Cc1nc(-c2nn(C)cc2-c2ccc3ncc(C(N)=O)n3c2)ccc1F [Example 12, 6-(3-(5-fluoro-6-methylpyridin-2-yl)-1-methyl-1H-pyrazol-4-yl)imidazo[1,2-a]pyridine-3-carboxamide] | 0.396 |  |
| Cc1cccc(-c2n[nH]cc2-c2ccc3ncc(C(N)=O)n3n2)n1 [Example 21, 6-(3-(6-methylpyridin-2-yl)-1H-pyrazol-4-yl)imidazo[1,2-b]pyridazine-3-carboxamide] | 0.205 |  |
| Cc1cccc(-c2n[nH]cc2-c2ccc3nccn3n2)n1 [Example 19, 6-(3-(6-methylpyridin-2-yl)-1H-pyrazol-4-yl)imidazo[1,2-b]pyridazine] | 0.277 |  |
| NC(=O)c1cnc2ccc(-c3c[nH]nc3-c3cccc(C(F)F)n3)cn12 [Example 5, 6-(3-(6-(difluoromethyl)pyridin-2-yl)-1H-pyrazol-4-yl)imidazo[1,2-a]pyridine-3-carboxamide] | 0.193 |  |
| Cc1cccc(-c2n[nH]cc2-c2ccc3[nH]ncc3c2)n1 [Example 18, 5-(3-(6-methylpyridin-2-yl)-1H-pyrazol-4-yl)-1H-indazole] | 0.752 |  |
| NC(=O)c1cnc2ccc(-c3cn(CC(F)F)nc3-c3cccc(C(F)(F)F)n3)cn12 [Example 8, 6-(1-(2,2-difluoroethyl)-3-(6-(trifluoromethyl)pyridin-2-yl)-1H-pyrazol-4-yl)imidazo[1,2-a]pyridine-3-carboxamide] |  | 0.006 |
| Cc1cccc(-c2nn(C)cc2-c2ccc3ncc(C(C)(C)O)n3c2)n1 [Example 52] |  | 0.007 |
| N#Cc1cnc2ccc(-c3cn(CC(F)F)nc3-c3cccc(C(F)(F)F)n3)cn12 [Example 7, 6-(1-(2,2-difluoroethyl)-3-(6-(trifluoromethyl)pyridin-2-yl)-1H-pyrazol-4-yl)imidazo[1,2-a]pyridine-3-carbonitrile] |  | 0.008 |

More lines, now with the values ahead:

| IC50 [1] [µM] | IC50 [2] [µM] | SMILES |
| --- | --- | --- |
| 0.105 | 0.011 | CC(=O)Nc1cc(-c2c(-c3ccc(F)cc3)nn3c2COCC3)ccn1 [Example 112, N-(4-(2-(4-fluorophenyl)-6,7-dihydro-4H-pyrazolo[5,1-c][1,4]oxazin-3-yl)pyridin-2-yl)acetamide] |
| 4.93 | 0.006 | Fc1ccc(-c2n[nH]cc2-c2ccc3nccn3n2)cc1 [Example 55, 6-(3-(4-fluorophenyl)-1H-pyrazol-4-yl)imidazo[1,2-b]pyridazine] |
| 0.176 | 0.001 | CC(C)c1[nH]nc(-c2ccc(F)cc2)c1-c1ccc2ncc(C(N)=O)n2c1 [Example 68, 6-(3-(4-fluorophenyl)-5-isopropyl-1H-pyrazol-4-yl) imidazo [1,2-a]pyridine-3-carboxamide] |
| 0.012 | 0.001 | Cc1cccc(-c2n[nH]c(C)c2-c2ccc3ncc(C(N)=O)n3c2)n1 [Example 64, 6-(5-methyl-3-(6-methylpyridin-2-yl)-1H-pyrazol-4-yl)imidazo[1,2-a]pyridine-3-carboxamide] |
| 2.98 | 0.001 | Cc1cc(-c2n[nH]c(C3CC3)c2-c2ccc3ncc(C#N)n3c2)ccc1F [Example 99, 6-(5-cyclopropyl-3-(4-fluoro-3-methylphenyl)-1H-pyrazol-4-yl)imidazo[1,2-a]pyridine-3-carbonitrile] |
| 5.34 | 0.241 | CC(C)(O)c1cnc2ccc(-c3c[nH]nc3-c3ccc(F)cc3)cn12 [Example 59, 2-(6-(3-(4-fluorophenyl)-1H-pyrazol-4-yl)imidazo[1,2-a]pyridin-3-yl)propan-2-ol] |
| 0.143 |  | NC(=O)c1cnc2ccc(-c3c(-c4ccc(F)cc4)n[nH]c3C3CC3)cn12 [Example 85, 6-(5-cyclopropyl-3-(4-fluorophenyl)-1H-pyrazol-4-yl)imidazo[1,2-a]pyridine-3-carboxamide] |
|  | 0.274 | CC(=O)Nc1[nH]nc(-c2ccc(F)cc2)c1-c1ccc2ncc(C#N)n2c1 [Example 142, N-(4-(3-cyanoimidazo[1,2-a]pyridin-6-yl)-3-(4-fluorophenyl)-1H-pyrazol-5-yl)acetamide] |
|  | 0.009 | Cc1cccc(-c2c(-c3ccc4ncc(C#N)n4c3)c(C(C)C)nn2C)n1 [Example 117, 6-(3-isopropyl-1-methyl-5-(6-methylpyridin-2-yl)-1H-pyrazol-4-yl)imidazo[1,2-a]pyridine-3-carbonitrile] |
|  | 0.03 | Cc1cccc(-c2nn(C)cc2-c2ccc3ncc(NC(C)(C)C)n3c2)n1 [Example 53, N-(tert-butyl)-6-(1-methyl-3-(6-methylpyridin-2-yl)-1H-pyrazol-4-yl)imidazo[1,2-a]pyridin-3-amine] |
|  | 0.007 | CC(C)c1[nH]nc(-c2ccc(F)cc2)c1-c1ccc2nccn2c1 [Example 69, 6-(3-(4-fluorophenyl)-5-isopropyl-1H-pyrazol-4-yl)imidazo [1,2-a]pyridine] |
|  | 0.079 | Cc1cccc(-c2nn(C)cc2-c2ccc3ncc(NC(=O)C(F)(F)F)n3c2)n1 [Example 54] |
|  | 0.023 | C=C(C)c1[nH]nc(-c2ccc(F)cc2)c1-c1ccc2nccn2c1 [Example 136, 6-(3-(4-fluorophenyl)-5-(prop-1-en-2-yl)-1H-pyrazol-4-yl)imidazo[1,2-a]pyridine] |
|  | 0.001 | Cc1cccc(-c2n[nH]c(C(F)F)c2-c2ccc3nccn3c2)n1 [Example 140, 6-(5-(difluoromethyl)-3-(6-methylpyridin-2-yl)-1H-pyrazol-4-yl)imidazo[1,2-a]pyridine] |
| 0.518 |  | NC(=O)c1cnc2ccc(-c3cn(CC(F)F)nc3-c3ccc(F)c(Cl)c3)cn12 [Example 62, 6-(3-(3-chloro-4-fluorophenyl)-1-(2,2-difluoroethyl)-1H-pyrazol-4-yl)imidazo[1,2-a]pyridine-3-carboxamide] |
|  | 0.145 | CC(C)c1nn(C)c(-c2ccc(F)cc2)c1-c1ccc2ncc(C(N)=O)n2c1 [Example 71] |
|  | 0.002 | CCOC(=O)c1[nH]nc(-c2cccc(C)n2)c1-c1ccc2ncc(C#N)n2c1 [Example 138, ethyl 4-(3-cyanoimidazo[1,2-a]pyridin-6-yl)-3-(6-methylpyridin-2-yl)-1H-pyrazole-5-carboxylate] |
|  | 0.07 | N#Cc1cnc2ccc(-c3c(-c4ccc(Cl)cc4)n[nH]c3C3CC3)cn12 [Example 96, 6-(3-(4-chlorophenyl)-5-cyclopropyl-1H-pyrazol-4-yl)imidazo[1,2-a]pyridine-3-carbonitrile] |
|  | 25.3 | O=C(O)c1[nH]nc(-c2ccc(F)cc2)c1-c1ccc2nccn2c1 [Example 133, 3-(4-fluorophenyl)-4-(imidazo[1,2-a]pyridin-6-yl)-1H-pyrazole-5-carboxylic acid] |
|  | 1.41 | N#Cc1cnc2ccc(-c3c(-c4ccc(F)cc4)n[nH]c3C(=O)NC3CC3)cn12 [Example 131, 4-(3-cyanoimidazo[1,2-a]pyridin-6-yl)-N-cyclopropyl-3-(4-fluorophenyl)-1H-pyrazole-5-carboxamide] |
